Where two headings read alike, the source gives them in different places.

Data set [1] deals with T1, Akt:β-catenin interaction (EGFP-AKT and mCherry-β-catenin) (Mus musculus, UniProt Q02248).
T1 construct: host or cells: 293T cells
T1 sequence (Q02248 1-781): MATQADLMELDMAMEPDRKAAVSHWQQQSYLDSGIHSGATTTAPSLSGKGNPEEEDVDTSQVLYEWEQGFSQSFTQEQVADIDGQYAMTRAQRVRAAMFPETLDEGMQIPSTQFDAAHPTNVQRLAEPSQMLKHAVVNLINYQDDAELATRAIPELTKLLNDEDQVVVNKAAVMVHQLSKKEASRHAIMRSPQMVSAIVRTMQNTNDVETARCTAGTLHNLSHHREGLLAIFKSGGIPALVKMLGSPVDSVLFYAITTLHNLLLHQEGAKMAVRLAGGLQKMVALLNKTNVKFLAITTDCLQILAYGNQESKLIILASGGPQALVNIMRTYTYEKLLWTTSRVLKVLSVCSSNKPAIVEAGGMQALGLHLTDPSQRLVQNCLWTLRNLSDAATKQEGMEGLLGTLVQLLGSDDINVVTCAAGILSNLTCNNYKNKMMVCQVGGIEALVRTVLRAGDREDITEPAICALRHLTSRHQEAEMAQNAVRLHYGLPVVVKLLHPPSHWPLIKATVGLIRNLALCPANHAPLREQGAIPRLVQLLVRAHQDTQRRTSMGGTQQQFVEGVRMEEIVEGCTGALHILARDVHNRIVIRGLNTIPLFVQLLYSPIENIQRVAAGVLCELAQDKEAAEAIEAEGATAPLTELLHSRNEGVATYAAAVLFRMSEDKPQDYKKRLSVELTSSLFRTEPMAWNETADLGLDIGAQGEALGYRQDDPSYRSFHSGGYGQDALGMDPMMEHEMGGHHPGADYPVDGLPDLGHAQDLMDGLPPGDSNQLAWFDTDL
Description: FRET assay (acceptor photobleaching), 293T cells. In kind it is cell-based. Here is the method:
Cells transfected with EGFP-AKT and mCherry-β-catenin were treated with vehicle or Doxorubicin at the indicated concentrations and FRET efficiency was determined.
FIG. 7C provides the FRET verification between Akt and β-catenin.
FRET measurement was performed by using the acceptor photobleaching method. Briefly, 293T cells were transfected with EGFP-AKT and mCherry-β-catenin (Addgene, #39531, #55001). A Perkin-Elmer Ultraview spinning disc system with a CSU-X1 Yokogawa disc was used for imaging. A 40×1.2 NA Plan-apochromatic objective was used, and emission was collected onto a C9100 Hamamatsu Photonics EM-CCD. EGFP was excited with a 488 nm laser, and emission was collected through a 500-555 nm band pass filter. mCherry was illuminated, and photobleached, with a 561 nm laser. Emission of mCherry was collected with a 580-650 nm band pass filter. 6 images of EGFP were acquired before and 8 images after bleaching of the mCherry with intense 561 nm light. After subtraction of camera background, the average intensity of EGFP in a region of interest spanning the bleached cell was determined in the 4 images before acceptor bleach (I1), or the 4 images after acceptor bleach (12). FRET efficiency is reported as 1−(I1/I2). Calculations were based on >500 cell images.

Data set [2] relates to human T-ALL blasts and pS^552-β-cat^+ LSCs. Description: Patient-derived xenografts of MRD+ pediatric T-ALL treated with [Low]DXR. In kind it is in vivo. To be noted: [Low]DXR 5 days, two weeks after transplantation; Pt 057, Pt 062. From the text:
Shown is T-ALL blasts (CD45^+ c-Kit^−ve CD3^+) in Pt 057. Graphs indicate frequency of human CD45^+ cells (%)+SD.
Graphs indicate frequency of human CD45^+ cells (%)±SD.
(In xenograft studies the graft and the host belong to different species.)

The test system of data set [3] is blast cells, LSCs and HSPCs of leukemic Pten:β-cat^Act mice. In kind it is in vivo. Here is the method:
Leukemic mice were treated with vehicle, chemotherapy, [Low]DXR (5×0.5 mg/kg), clinical DXR (1×20 mg/kg), or chemotherapy+[Low]DXR as described in FIG. S2.
Average frequency of each population (n≥6 per group) is shown.
Absolute number/femur±SD of each population (n≥6 per group) is shown.
At 10 days post-treatment, BM was analyzed by flow cytometry to determine frequency of blast cells. Average frequency±SD (n 6 per group). Note that this experiment used clinical dose (normal) or [Low]
Alternatively, a single injection on day 1 of 0.8 or 2.5 μg/g of DXR-loaded nanoparticles (NanoDXR) was given with and without chemotherapy. At 10 days post-treatment, BM was analyzed by flow cytometry to determine frequency of LSCs. Shown is average frequency±SD (n 6 per group).
Alternatively, a single injection on day 1 of 0.8 or 2.5 μg/g of DXR-loaded nanoparticles (NanoDXR) was given with and without chemotherapy. At 10 days post-treatment, BM was analyzed by flow cytometry to determine frequency of HSPCs. Shown is average frequency±SD (n 6 per group).
Whole bone marrow was isolated from uninduced HSC-SCL-Cre^+ Pten^fx/fx βcat^fx(Exon3)/+ (Pn:β-cat^Act) mice and combined with an equal portion of Cre negative bone marrow from a littermate and transplanted into irradiated (10 Grays) B6.SJL-Ptprc^a Pepc^b/BoyJ (Ptprc) recipients.
Chemotherapy for the animal model consisted of Nelarabine (Selleck) and Dexamethasone (BioVision) administered daily for 5 days consecutively. 43.4 mg/ml Nelarabine was administered intravenously via the tail vain according to the formula: Body Weight (g)×5=volume to inject (μl), which yielded 217 mg/kg. 2.5 mg/ml Dexamethasone was injected intraperitoneally according to the formula: Body Weight (g)×4=volume to inject (μl), yielding 10 mg/kg. […] [Low] NanoDXR treatment used doxorubicin nanoparticles (Tran et al. 2014) administered as a single IV injection once per week on day 1 relative to above treatments using 0.8 mg/kg. Maintenance [Low] NanoDXR consisted of once per week injections of 0.4 mg/kg. Groups combining Nelarabine with Doxorubicin used a single injection containing both drugs. All drugs were solubilized in 45% (2-Hydroxypropyl)-p-cyclodextrin (HBC) or 0.9% NaCl.
Cells were collected from bone marrow (femur and tibia), spleen, peripheral blood, and thymus. For cell surface phenotyping, a lineage cocktail (Lin) was used including CD3 (for HSPC but not LSC analysis), CD4, CD8, Mac-1, Gr, B220, IgM, and Ter119 (eBioscience, San Diego, CA). Monoclonal antibodies against CD3 (separate fluorophore for LSC analysis), Sca-1, c-Kit, CD45.1, and CD45.2 were also used where indicated. Cell sorting and analysis were performed using an inFlux (BD), MoFlo (Dako, Ft. Collins, CO) and/or CyAn ADP (Dako, Ft. Collins, CO). Data analysis was performed using FlowJo software (Ashland, OR).

[4] abbreviates: BM FACS 5 days post-treatment, DXR as [Low]DXR 5×0.5 mg/kg, chemotherapy = Nelarabine+Dexamethasone 5 days.
Setting [5] is: clinical dose DXR 20 mg/kg alone.

With `COc1cccc2c1C(=O)c1c(O)c3c(c(O)c1C2=O)C[C@@](O)(C(=O)CO)C[C@@H]3O[C@H]1C[C@H](N)[C@H](O)[C@H](C)O1` [DXR, doxorubicin], the “concentration at which Akt:β-catenin interaction is inhibited” value in data set [1] was less than 1 µM. Also, the “FRET between EGFP-AKT and mCherry-β-catenin” value in data set [1] (versus vehicle treated cells) is “decreased with increasing concentrations and exposure time”. Also, in data set [2], the “engraftment of bulk blast cells” value is “not significantly changed” and the “pS552-β-cat+ LSCs” value was “significantly reduced”. Further, in data set [3] (setting [4]), the “effect on LSCs” value is listed as “significantly reduced” and the “effect on blast cells” value was “no significant effect”. The “blast cell reduction when DXR substitutes for Nelarabine” value in data set [3] ([Low]DXR with Dexamethasone, 10 days post-treatment) is “did not significantly reduce blast cells”. For the same molecule, in data set [3] (setting [5]), the “HSPC frequency versus vehicle alone” value was “not significantly different”, the “increase of LSC frequency among surviving cells” value amounted to 5 fold, the “increase of blast cell frequency among surviving cells” value is given as less than 2 fold and the “toxicity in terms of absolute cell number” value is “broadly toxic to all cells”. In data set [3] (clinical equivalent dose DXR (5×4 mg/kg daily) with Dexamethasone, 10 days post-treatment), the “blast cell reduction when DXR substitutes for Nelarabine” value is on record as “could substitute for a DNA-damaging agent in their reduction”. For the same molecule, the “reduction of LSCs” value in data set [3] (free DXR, 5 doses of 0.15 μg/g, 10 days post-treatment) was “ineffective”.
